Results taken from patent US6133266A, “3,4-disubstituted phenylethanolaminotetralincarboxamide derivatives” (Kissei Pharmaceutical Co., Ltd., priority 1996, dated 2000).
Counter-ions that a name gives are not always drawn.

Assays:
β1 -adrenergic receptor = assay: Action of drugs on the atrial contractions of isolated atria (isolated rat atrium); format: cell-based; conditions: isolated atria of SD male rats, Magnus method, 37° C.
Protocol: Thus, the compounds of the present invention have markedly weak β1 -adrenergic receptor stimulating effect in comparison with the aforementioned β2 -adrenergic receptor stimulating effect.
Action of drugs on the atrial contractions of isolated atria The atria of SD male rats (350 to 400 g in body weight) were isolated and the experiment was conducted according to the Magnus method. The preparations were mounted with a tension of 1 g in Krebs-Henseleit solution maintained at 37° C. and gassed with a mixture of 95% of oxygen and 5% of carbon dioxide. The atrial contraction was induced isometrically via a pressure transducer and recorded on a rectigram. After addition of the drug, its efficacy was evaluated by calculating EC20 value which is the drug concentration which increases 20 beats per minute of heart rate.

β2 -adrenergic receptor = biological target: T1, β2 -adrenergic receptor (Rattus norvegicus, UniProt P10608); assay: Action of drugs on the spontaneous contractions of isolated myometria (isolated rat pregnant uterus); format: cell-based; conditions: isolated pregnant SD rat uterus (pregnancy day 21), Magnus method, 37° C.; read-out: EC50, activity to relax 50% of the spontaneous contractions of rat myometrium
T1 construct: longitudinal uterine muscle strips (about 15 mm in length and about 5 mm in width); from tissue; host or cells: longitudinal uterine muscle strips of pregnant SD rat (day 21)
T1 sequence (P10608 whole entry): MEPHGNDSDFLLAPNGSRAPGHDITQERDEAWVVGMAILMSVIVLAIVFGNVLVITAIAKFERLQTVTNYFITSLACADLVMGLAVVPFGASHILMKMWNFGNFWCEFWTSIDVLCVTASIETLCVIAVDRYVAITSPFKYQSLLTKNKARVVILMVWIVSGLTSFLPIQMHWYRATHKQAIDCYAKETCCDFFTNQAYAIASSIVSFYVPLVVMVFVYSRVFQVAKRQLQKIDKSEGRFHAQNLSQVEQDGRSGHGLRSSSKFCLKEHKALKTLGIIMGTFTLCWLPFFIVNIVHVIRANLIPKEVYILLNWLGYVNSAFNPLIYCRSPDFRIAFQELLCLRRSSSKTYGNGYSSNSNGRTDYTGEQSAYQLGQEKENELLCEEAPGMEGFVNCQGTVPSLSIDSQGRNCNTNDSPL
Protocol: Thus, the compounds of the present invention have markedly potent β2 -adrenergic receptor stimulating effect and therefore are remarkably useful as β2 -adrenergic receptor stimulating agents.
Action of drugs on the spontaneous contractions of isolated myometria
The uterus of a pregnant SD rat (pregnancy day of 21) was isolated and longitudinal uterine muscle strips (about 15 mm in length and about 5 mm in width) free from the basal plate were prepared. The experiment was conducted according to the Magnus method. The preparations were mounted with a tension of 1 g in Locke-Ringer solution maintained at 37° C. and gassed with a mixture of 95% of oxygen and 5% of carbon dioxide. Spontaneous contractions of the myometrium were induced isometrically via a pressure transducer and recorded on a rectigram. The efficacy was evaluated by comparing the total degree of uterine contraction during 5 minutes before the addition of the drug with the total degree of uterine contraction during 5 minutes after the addition of the drug and calculating the 50% inhibitory concentration as EC50.

male ICR mice = assay: Acute toxicity; format: in vivo; conditions: 5 male ICR mice, intravenously in saline, 20 mg/kg, during 24 hours after the administration
Protocol: To 5 male ICR mice of 4 weeks age was administered intravenously 2-[(2S)-2-[[(2R)-2-hydroxy-2-(4-hydroxy-3hydroxymethylphenyl)ethyl]amino]- 1,2,3,4-tetrahydronaphthalen-7-yloxy]-N,N-dimethylacetamide 0.5 sulfate in saline at dose of 20 mg/kg.

Row | Structure (SMILES) | EC20 value, activity to increase 20 beats per minute of rat heart rate (β1 -adrenergic receptor) | EC50 (β2 -adrenergic receptor) [nM] | death of animals (male ICR mice)
1 | CN(C)C(=O)COc1ccc2c(c1)C[C@@H](NC[C@H](O)c1ccc(O)c(CO)c1)CC2 [Compound 6, (-)-2-[(2S)-2-[[(2R)-2-Hydroxy-2-(4-hydroxy-3-hydroxymethylphenyl)ethyl]amino]-1,2,3,4-tetrahydronaphthalen-7-yloxy]-N,N-dimethylacetamide] | 9.4×10^-7 mol concentration | 2.6 | –
2 | CN(C)C(=O)COc1ccc2c(c1)C[C@@H](NC[C@H](O)c1ccc(O)c(CO)c1)CC2 [Compound 19, (-)-2-[(2S)-2-[[(2R)-2-Hydroxy-2-(4-hydroxy-3-hydroxymethylphenyl)ethyl]amino]-1,2,3,4-tetrahydronaphthalen-7-yloxy]-N,N-dimethylacetamide 0.5 sulfate] | – | – | No death of animals was observed
3 | CN(C)C(=O)COc1ccc2c(c1)C[C@@H](NCC(O)c1ccc(O)c(CO)c1)CC2 (mixture of isomers) [Compound 1, 2-[(2S)-2-[[(2RS)-2-Hydroxy-2-(4-hydroxy-3-hydroxymethylphenyl)ethyl]amino]-1,2,3,4-tetrahydronaphthalen-7yloxy]-N,N-dimethylacetamide] | 2.5×10^-6 mol concentration | 5.3 | –
